Measured values: patent US20080249006A1, “Pharmaceutical Preparation for the Treatment of Shock” (FIBREX MEDICAL RESEARCH & DEVELOPMENT GESMBH, priority 2004, published 2008)

Legend:
VE-cadherin = target: T1, VE-cadherin (Homo sapiens, UniProt P33151); assay: Competition ELISA: inhibition of FLAG-tagged Bbeta15-42 binding to VE-cadherin; settings: for % inhibition of 15-42FLAG-binding to VE-cadherin mean ± SD: FLAG-tagged Bbeta15-42 12 μM
T1 construct: Fc (immunoglobulin Fc fusion partner); purchased R&D Systems, Minneapolis
Excerpt: (§1) We have developed a modified ELISA working with the same principles described by others, but the purpose of the herein described ELISA is not to quantify fibrin degradation products, but to search for proteins, peptides or compounds which interfere with the binding of the Bbeta15-42 sequence and the VE-cadherin. […] Into this system one can introduce any other additional substance and measure if this substance inhibits VE-cadherin/Bbeta15-42 binding.
(§2) In detail, 96 well protein immobilizer plates (Exiqon, Vedbaek, D K) were coated with recombinant human VE-cadherin FC fusion protein (8 nM/ml; R&D Systems, Minneapolis) in PBS and were left overnight at 4° C. Plates were then washed and incubated with peptide Bβ15-42 ([…]) tagged with a FLAG-sequence (DYKDDDDK) at the C-terminus of the peptide or with a FLAG-tagged random peptide ([…]) at a concentration of 0-80 μMol. After washing, bound FLAG-tagged peptide was detected by incubation with a peroxidase-labelled anti-FLAG antibody (Sigma, St. Louis, USA) and chromogenic substrate. Optical density was determined by an ELISA plate reader set at a wavelength of 450 nm. Data represent the mean of three independent experiments, each performed in triplicates.
In a next step, we analyzed whether this ELISA can be used to screen for other peptides/compounds to compete with the binding of the Bβ15-42 sequence to VE-cadherin.
VE-cadherin was coated to the plastic surface at a concentration of 8 nM. Then indicated peptides were added at concentrations of 200 μM, NDSK or NDSK-II were added at indicated concentrations. Detection of binding of the FLAG-tagged Bbeta15-42 (12 μM) was performed as described above.

[1] = target: T2, recombinant human VE-cadherin FC fusion protein (Homo sapiens, UniProt P33151); assay: ELISA: binding of FLAG-tagged peptide to coated VE-cadherin
T2 construct: Fc (immunoglobulin Fc fusion partner); purchased R&D Systems, Minneapolis
Excerpt: as §1, §2

[2] = tested on: Dengue virus type 2 (DEN-2), strain P23085; assay: Treatment of dengue virus infected mice; assay type: in vivo, BALB/c mice; settings: for IL-1 / IL-6 / TNF: serum
[3] = tested on: Gram-negative shock, Lipopolysaccharide from E. coli, serotype 0.127:B8; assay: Gram-negative shock (LPS-induced multiple organ failure) in rats; assay type: in vivo, Wistar rats; design: Glucose / Amylase / ALT / AST / Creatinine / Urea / heart rate (mean): unit not given here; settings: for mean number of fibrin thrombi within vessels: end of the experiment, acidic fuchsin-orange G stain
Experimental: Male Wistar rats weighing 230-280 g were housed in the Tierversuchsanlage (University of Düisseldorf) and fed on a standard diet with water ad libitum. All procedures were carried out in accordance with the AAALAC guidelines and Guide for the Care and Use of Laboratory Animals (Department of Health and Human Services, National Institutes of Health, Publication No. 86-23). In addition, all experiments have been approved by an ethical and research board of the University of Düisseldorf and the county. As previously described (Zacharowski et al. Crit. Care Med 2000, Zacharowski et al. Crit. Care Med 2001; 29:1599-1608), rats were anaesthetized with sodium thiopentone (120 mg/kg i.p.) and anesthesia was maintained with supplementary doses of sodium thiopentone as required.
The trachea was cannulated to facilitate respiration and rectal temperature was maintained at 37° C. with a homoeothermic blanket. […] The right jugular vein was cannulated for the administration of drugs. The bladder was also cannulated to facilitate urine flow and to prevent the possibility of the development of post-renal failure. All animals received a total fluid replacement of 1.0 ml/kg/h (0.9% sodium chloride, saline, as an i.v. infusion into the jugular vein) throughout the experiment. Upon completion of the surgical procedure, cardiovascular parameters were allowed to stabilize for 15 min and constantly recorded over 6 h. In this model of LPS-induced multiple organ failure, a period of 6 h is essential to achieve a significant rise in the serum levels of AST and ALT, while a significant rise in the serum levels of urea and creatinine can already be observed after 2 h.
Three groups were studied: Rats were subjected to sham operation: (sham). Rats were subjected to Gram-negative shock. Lipopolysaccharide from E. coli, serotype 0.127:B8 (6 mg/kg i.v.) was given over 5 min i.v., 1 h later, animals received saline (2.4 ml/kg): (LPS+saline). Rats were subjected to Gram-negative shock. Lipopolysaccharide from E. coli, serotype 0.127:B8 (6 mg/kg i.v.) was given over 5 min i.v., animals received Bβ15-42 (2.4 mg/kg): (LPS+Bβ15-42).
Six hours after the induction of Gram-negative shock, blood was collected from the catheter placed in the right carotid artery. The blood sample was centrifuged (1610×g for 3 min at room temperature) to separate plasma. The following marker enzymes were measured in the plasma as biochemical indicators of multiple organ injury/dysfunction:
Liver injury was assessed by measuring the rise in plasma levels of alanine aminotransferase (ALT, a specific marker for hepatic parenchymal injury) and aspartate aminotransferase (AST, a non-specific marker for hepatic injury).
Plasma levels of glucose and amylase were measured as indirect markers of pancreatic function and injury.
In addition, arterial pO2 was measured as indirect marker of lung function/injury. Laboratory values
Organ (lung, liver, heart and kidney) biopsies of all groups studied were taken at the end of the experiment. The biopsies were fixed in buffered formaldehyde solution (4% in phosphate buffered saline) at room temperature and sent to Vienna. […] In sham treated animals no fibrin thrombi were present.

endothelial surfaces = settings: in vitro; cited from earlier work
endothelium = settings: cited from earlier work
[4] = in vivo, ischemia/reperfusion; cited from earlier work
[5] = blocking reagent 200 μM, VE-cadherin 8 nM
[6] = DEN-2 1 LD50 i.p., 4800 μg/kg i.p. twice per day, day 3 to day 8 post infection, p < 0.05 between groups
[7] = plasma, 6 h after induction of Gram-negative shock, Bβ15-42 2.4 mg/kg

T2 sequence (P33151 with tags, fused parts or gaps limits assumed): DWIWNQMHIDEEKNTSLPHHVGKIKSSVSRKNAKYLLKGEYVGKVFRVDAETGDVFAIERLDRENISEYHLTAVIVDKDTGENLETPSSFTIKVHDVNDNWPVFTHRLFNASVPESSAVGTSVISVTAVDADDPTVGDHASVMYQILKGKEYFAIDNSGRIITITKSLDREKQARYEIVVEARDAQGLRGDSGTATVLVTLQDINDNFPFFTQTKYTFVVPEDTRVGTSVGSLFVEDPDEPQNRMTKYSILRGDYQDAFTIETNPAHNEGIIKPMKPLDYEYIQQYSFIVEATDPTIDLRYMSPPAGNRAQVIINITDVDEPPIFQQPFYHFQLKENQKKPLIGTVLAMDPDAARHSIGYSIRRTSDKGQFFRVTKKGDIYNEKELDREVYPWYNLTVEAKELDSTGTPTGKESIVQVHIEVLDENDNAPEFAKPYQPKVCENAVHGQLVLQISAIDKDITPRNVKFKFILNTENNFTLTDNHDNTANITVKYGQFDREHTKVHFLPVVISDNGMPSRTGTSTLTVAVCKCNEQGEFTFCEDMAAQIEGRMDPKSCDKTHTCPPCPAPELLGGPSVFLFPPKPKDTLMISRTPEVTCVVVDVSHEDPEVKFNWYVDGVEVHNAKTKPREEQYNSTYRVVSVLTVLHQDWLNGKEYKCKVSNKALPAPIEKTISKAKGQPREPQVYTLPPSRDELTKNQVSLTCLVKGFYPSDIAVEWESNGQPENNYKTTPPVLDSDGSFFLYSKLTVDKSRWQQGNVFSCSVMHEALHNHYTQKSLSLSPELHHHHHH
T1 sequence (P33151 with tags, fused parts or gaps limits assumed): as above

peptide 15-30 (16mer): shorter peptide, amino acids 15-30 of the fibrin Bβ chain
% inhibition of 15-42FLAG-binding to VE-cadherin mean ± SD (VE-cadherin; blocking reagent 12 μM): 6 ± 3% | % inhibition of 15-42FLAG-binding to VE-cadherin mean ± SD (VE-cadherin; [5]): 61 ± 13%

GHRPLDKKREEAPSLRPAPPPISGGGYR [Bβ15-42, peptide matching amino acids 15-42 of the Bbeta chain of human fibrin]
Binding to VE-cadherin (in words) ([1]; FLAG-tagged peptide 0-80 μMol): bound to VE-cadherin in a concentration-dependent manner | Inhibition of binding of flag-tagged peptide Bβ15-42 to VE-cadherin (in words) (VE-cadherin): completely inhibited | % inhibition of 15-42FLAG-binding to VE-cadherin mean ± SD (VE-cadherin; [5]): 100 ± 10% | mean time to death ([2]; DEN-2 1 LD50 i.p., 4800 μg/kg i.p. twice per day, day 3 to day 8 post infection): All mice survived | Mortality (%) [2, 6]: 0% | Survival (%) [2, 6]: 100% | viremia ([2]; day 2): 1.2 ± 0.2 1 g PFU/ml | viremia ([2]; day 3^b): 2.2 ± 0.2 1 g PFU/ml | hematokrit ([2]; day 3 after challenge): 15% | viremia ([2]; day 4): 4.2 ± 0.2 1 g PFU/ml | viremia ([2]; day 5): 5.6 ± 0.4 1 g PFU/ml | hematokrit ([2]; day 5 after challenge): 33% | viremia ([2]; day 6): 6.0 ± 0.4 1 g PFU/ml | viremia ([2]; day 7): 5.9 ± 0.4 1 g PFU/ml | hematokrit ([2]; day 7 after challenge): 43% | viremia ([2]; day 28): 0 1 g PFU/ml | viremia ([2]; first line of the table, day number not given): 0 1 g PFU/ml | IL-1 ([2]; day 3 after challenge): 32 pg/mL | IL-6 ([2]; day 3 after challenge): 140 pg/mL | TNF ([2]; day 3 after challenge): 32 pg/mL | IL-1 ([2]; day 5 after challenge): 29 pg/mL | IL-6 ([2]; day 5 after challenge): 110 pg/mL | TNF ([2]; day 5 after challenge): 65 pg/mL | IL-1 ([2]; day 7 after challenge): 28 pg/mL | IL-6 ([2]; day 7 after challenge): 100 pg/mL | TNF ([2]; day 7 after challenge): 45 pg/mL | Survival ([3]; LPS 6 mg/kg i.v. plus Bβ15-42 2.4 mg/kg, n = 20 in each group, p < 0.05): 88% | heart rate (mean) ([3]; LPS + Bβ15-42, time 0 h): 436.9 | mean arterial pressure (mean) ([3]; LPS + Bβ15-42, time 0 h): 128.9 | heart rate (mean) ([3]; LPS + Bβ15-42, time 1 h): 484.8 | mean arterial pressure (mean) ([3]; LPS + Bβ15-42, time 1 h): 83.7 | heart rate (mean) ([3]; LPS + Bβ15-42, time 2 h): 484.1 | mean arterial pressure (mean) ([3]; LPS + Bβ15-42, time 2 h): 102.3 | heart rate (mean) ([3]; LPS + Bβ15-42, time 3 h): 509.8 | mean arterial pressure (mean) ([3]; LPS + Bβ15-42, time 3 h): 103.2 | heart rate (mean) ([3]; LPS + Bβ15-42, time 4 h): 516.7 | mean arterial pressure (mean) ([3]; LPS + Bβ15-42, time 4 h): 101.2 | heart rate (mean) ([3]; LPS + Bβ15-42, time 5 h): 533.7 | mean arterial pressure (mean) ([3]; LPS + Bβ15-42, time 5 h): 97.1 | heart rate (mean) ([3]; LPS + Bβ15-42, time 6 h): 541.6 | mean arterial pressure (mean) ([3]; LPS + Bβ15-42, time 6 h): 107.7 | Fibrin thrombi in sections stained for fibrin deposits, controls versus treated (in words) ([3]; acidic fuchsin-orange G, p<0.05): significantly elevated numbers of fibrin thrombi in controls receiving LPS alone as compared with animals treated with LPS plus Bβ15-42 | pO2 ([3]; arterial, 6 h after induction of Gram-negative shock, Bβ15-42 2.4 mg/kg): 98.7 | Standard H&E-stained organ sections (lung, liver, heart, kidney), comparison of groups ([3]; biopsies at the end of the experiment): no differences | mean number of fibrin thrombi within vessels ([3]; heart): 5 + 2 | mean number of fibrin thrombi within vessels ([3]; kidney): 2 + 9 | mean number of fibrin thrombi within vessels ([3]; liver): 78 + 37 | mean number of fibrin thrombi within vessels ([3]; lung): 1 + 0 | ALT [3, 7]: 261.9 | AST [3, 7]: 529.0 | Amylase [3, 7]: 1945.1 | Creatinine [3, 7]: 0.6 | Glucose [3, 7]: 45.8 | Urea [3, 7]: 107.8 | Binding of fibrin fragments to endothelial surfaces (in words) (endothelial surfaces): blocks binding of fibrin fragments to endothelial surfaces | Inflammation in vitro (in words) (endothelium): blocks inflammation in vitro | Myocardial infarct sizes (in words) [4]: reduces myocardial infarct sizes | Myocardial inflammation (in words) [4]: prevents myocardial inflammation

peptide 15-37 (24mer): shorter peptide, amino acids 15-37 of the fibrin Bβ chain
% inhibition of 15-42FLAG-binding to VE-cadherin mean ± SD (VE-cadherin; blocking reagent 12 μM): 7 ± 2% | % inhibition of 15-42FLAG-binding to VE-cadherin mean ± SD (VE-cadherin; [5]): 17 ± 19%

peptide 15-18 (4mer): shorter peptide, amino acids 15-18 of the fibrin Bβ chain
% inhibition of 15-42FLAG-binding to VE-cadherin mean ± SD (VE-cadherin; blocking reagent 12 μM): 7 ± 2% | % inhibition of 15-42FLAG-binding to VE-cadherin mean ± SD (VE-cadherin; [5]): 65 ± 12%

peptide 15-26 (12mer): shorter peptide, amino acids 15-26 of the fibrin Bβ chain
% inhibition of 15-42FLAG-binding to VE-cadherin mean ± SD (VE-cadherin; blocking reagent 12 μM): 6 ± 1% | % inhibition of 15-42FLAG-binding to VE-cadherin mean ± SD (VE-cadherin; [5]): 64 ± 10%

peptide 16-42 (27mer): shorter peptide, amino acids 16-42 of the fibrin Bβ chain
% inhibition of 15-42FLAG-binding to VE-cadherin mean ± SD (VE-cadherin; blocking reagent 12 μM): 5 ± 2% | % inhibition of 15-42FLAG-binding to VE-cadherin mean ± SD (VE-cadherin; [5]): 55 ± 13%

peptide 15-34 (20mer): shorter peptide, amino acids 15-34 of the fibrin Bβ chain
% inhibition of 15-42FLAG-binding to VE-cadherin mean ± SD (VE-cadherin; blocking reagent 12 μM): 7 ± 1% | % inhibition of 15-42FLAG-binding to VE-cadherin mean ± SD (VE-cadherin; [5]): 67 ± 17%

15-42 FLAG: peptide Bβ15-42 (GHRPLDKKREEAPSLRPAPPPISGGGYR) tagged with a FLAG-sequence (DYKDDDDK) at the C-terminus (GHRPLDKKREEAPSLRPAPPPISGGGYRDYKDDDDK)
Binding to VE-cadherin, optical density at 450 nm (mean) ([1]; FLAG-tagged peptide 0 μM): 0 | Binding to VE-cadherin, optical density at 450 nm (mean) ([1]; FLAG-tagged peptide 0.23 μM): 0.01 | Binding to VE-cadherin, optical density at 450 nm (mean) ([1]; FLAG-tagged peptide 0.7 μM): 0.02 | Binding to VE-cadherin, optical density at 450 nm (mean) ([1]; FLAG-tagged peptide 2.3 μM): 0.08 | Binding to VE-cadherin, optical density at 450 nm (mean) ([1]; FLAG-tagged peptide 7 μM): 0.33 | Binding to VE-cadherin, optical density at 450 nm (mean) ([1]; FLAG-tagged peptide 14 μM): 0.92 | Binding to VE-cadherin, optical density at 450 nm (mean) ([1]; FLAG-tagged peptide 21 μM): 1.3 | Binding to VE-cadherin, optical density at 450 nm (mean) ([1]; FLAG-tagged peptide 35 μM): 1.5 | Binding to VE-cadherin, optical density at 450 nm (mean) ([1]; FLAG-tagged peptide 46 μM): 1.93 | Binding to VE-cadherin, optical density at 450 nm (mean) ([1]; FLAG-tagged peptide 70 μM): 2.1
